In brackets after ≈: the same amount, converted by molar mass. Several values for one entry are separate records, joined by “and”; a condition that tells them apart may be missing. Equal values may be shown once.
Assays:
[1] = Cytotoxicity assay (CellTiter Glo) on lymphoma cells; conditions: human
H9 cells = experiment: as above; conditions: ratio CC50 FB789 / CC50 H9
[2] = Cytotoxicity assay (CellTiter Glo) on colon epithelial carcinoma cells; conditions: human, Caco-2
Caco-2 cells = experiment: as above; conditions: for TSI Caco-2: ratio CC50 FB789 / CC50 Caco-2
Huh7 cells = experiment: Cytotoxicity assay (CellTiter Glo) on hepatocarcinoma cells; format: cell-based; conditions: for TSI Huh7: ratio CC50 FB789 / CC50 Huh7
Procedure: (§1) Cell-based assays were carried out on the normal human fibroblast FB789 cell line (kindly provided by Elena Dell’Ambra from IRCCS Istituto Dermopatico dell’Immacolata, Rome), on the Huh7 hepatocarcinoma cell line (kindly provided by Istituto Toscano Tumori, Core Research Laboratory, Siena, Italy), on the Caco-2 adenocarcinoma colorectal cell line (ATCC catalog. n. HTB-37), on the suspension H9 cell line (repository code ARP0001, NIBSC Centre for AIDS reagents) and on the adherent TZM-bl cell line (repository code ARP5011, NIBSC Centre for AIDS reagents).
(§2) High glucose Dulbecco’s Modified Eagle Medium with sodium pyruvate and L-glutamine (DMEM; Euroclone) was used to grow Huh-7 and TZM-bl. Minimum Essential Eagle Medium (EMEM; Euroclone) was used to propagate Caco-2. DMEM and EMEM were supplemented with 10% fetal bovine serum (FBS; Euroclone) and 1% penicillin/streptomycin (Pen/Strep, Euroclone). The growth medium with a lower concentration of FBS (1%) was used for viral propagation, cytotoxic and antiviral experiments in adherent cell lines. […] All cell lines were grown at 37 °C in a 5% CO2 atmosphere in a humidified incubator.
(§3) The cytotoxicity of all investigated compounds was assayed in all cells lines as previously described. Briefly, confluent cells were treated with decreasing compound concentrations for 48h. The final DMSO concentration used was never greater than 0.5% v/v. Each experiment was performed in duplicate and repeated in two independent experiments. Cell viability was calculated using the CellTiter Glo 2.0 kit (Promega, Madison, WI, USA) and luminescence values signal obtained from cells treated with serial dilution of the compounds were measured through the GloMax® Discover Multi mode Microplate Reader (Promega) and elaborated with GraphPad PRISM software version 9.0 (La Jolla, San Diego, CA, USA). […] A non-toxic dose of each compound was used as the starting concentration in the antiviral activity assay.

[3] = as above; format: cell-based; conditions: human, Huh7 hepatocarcinoma cells, Huh7 hepatocarcinoma
Procedure: as §1, §2, §3

SARS-CoV-2 = test system: SARS-CoV-2; set-up: method as in PMID 36557962; conditions: half-maximal concentration inhibiting 50% of virus replication; cited from earlier work
[4] = Cytotoxicity assay (CellTiter Glo) on normal fibroblasts; format: cell-based, human; conditions: human, FB789 normal fibroblast cells
Procedure: as §1
(§4) The FB789 was cultured in Dulbecco’s Modified Eagle Medium (DMEM) and Ham’s F10 in a ratio of 50%, supplemented with 10% FBS, 2 mM L-glutamine, and 10,000 unit/mL penicillin/streptomycin.
as §3

DENV = DENV antiviral yield reduction assay in Huh7; conditions: read-out: potency on DENV; flavivirus DENV
WNV = WNV antiviral yield reduction assay in Huh7; conditions: read-out: potency on WNV; flavivirus WNV
[5] = Metabolic stability assay with human liver microsomes; format: in vitro ADME; conditions: 1 h, 37 °C, 50 µM
Procedure: A DMSO solution of selected compounds was incubated in the presence of phosphate buffer (25 mM, pH 7.4), human liver microsomal protein (200 µg/mL), and an NADPH regenerating system in MgCl2 (48 mM) at a final concentration of 50 µM. The metabolic reactions were conducted for 1 h under shaking at 37 °C and then stopped by adding cold acetonitrile (ACN). Centrifuging the mixtures at 5000 rpm, the supernatant was separated, dried under nitrogen flow, and finally suspended in methanol (MeOH). The amount of the parent drug and the metabolites were determined as previously described.

[6] = Kinetic aqueous solubility; format: physicochemical; conditions: Milli-Q water, 25 °C, kinetic from dmso stock; for solubility kinetic at 3 h: water, Mill-Q H2O, RT, LOD 0.1 µg/mL
Procedure: For the quantitative analysis, a UV/LC-MS system was used. LC analysis was performed through an Agilent 1260 Infinity HPLC-DAD system (Agilent Technologies, Palo Alto, CA, USA), which constituted of a vacuum solvent degassing unit, a binary high-pressure gradient pump, and a UV detector, that was connected to an Agilent MSD 6130 system (Agilent Technologies, Palo Alto, CA, USA). The Agilent 1260 series mass spectra detection (MSD) single-quadrupole instrument was equipped with the orthogonal spray API-ES (Agilent Technologies, Palo Alto, CA, USA). Nitrogen was used as a nebulizing and drying gas. Chromatographic separation was performed using a Phenomenex Kinetex EVO C18-100 Å (150 × 4.6 mm, 5 μm particle size) at 25 °C and a gradient elution with a binary solution; eluent A was H2O, while eluent B consisted of ACN (both eluents were acidified with FA 0.1% v/v). […] UV detection was monitored at 254 nm. Spectra were acquired over the scan range m/z 100–1500 in positive mode.
DMSO-stock compounds’ solutions were diluted with Mill-Q H2O to a final concentration of 200 μM. The percentage of DMSO never exceeded 2% v/v. Samples were incubated under gentle shaking at 25 °C (RT) conditions for 3 h. The suspensions were filtered using a 0.45 µm nylon filter (Acrodisc, VWR, Radnor, PE, USA), and the amount of solubilized compound was determined with the HPLC-UV-MS method reported above. The quantification of the solubilized compound was made with the appropriate calibration curve realized with stock solutions in DMSO (0.1–100 µg/mL). The limit of detection (LOD) was quantified at 0.1 µg/mL.

Plasma stability assay = format: in vitro ADME; conditions: human plasma, 24 h, 37 °C; % of Time 0
Procedure: A DMSO solution of each compound was incubated at a final concentration of 100 µM at 37 °C under shaking with HEPES buffer (25 mM, 140 mM NaCl, pH 7.4) and human plasma. At time 0 and after 24 h, samples were collected from the reaction mixtures and treated with cold ACN. After centrifugation at 5000 rpm for 10 min, the supernatant was collected, and the amount of unmodified compound was determined using the HLPC-UV/MS method described above. Modified compounds were calculated using time zero as 100% of the unmodified compound.

[7] = Parallel artificial membrane permeability assay (PAMPA); format: in vitro ADME; conditions: GI, pH 7.4, 5 h, RT
Procedure: To evaluate the apparent permeability of tested compounds, a DMSO stock solution [1 mM] of each derivative was prepared and then diluted 1:1 v/v with phosphate buffer (PBS 25 mM, pH 7.4) in order to make the donor solutions. According to the protocol already published, the gastrointestinal (GI) phospholipidic bilayer was mimed through adding a 1% w/v dodecane solution of phosphatidylcholine (PC). The sandwich plates were assembled and incubated for 5 h at RT. At the end time point, the amount of compound passed through the phospholipid bilayer was measured using HPLC-UV/MS. Finally, apparent permeability (Papp) and membrane retention (MR%) were calculated as previously described.

FB789 cells = experiment: Cytotoxicity assay (CellTiter Glo) on normal fibroblasts; format: cell-based, human; conditions: pyrimidines and pyridines, read out at 48 h, mean ± SD
Procedure: as §1, §4, §3

[8] = triazines 1-9, read-out 48 h, Cell-Titer Glo
[9] = pyrimidines and pyridines, read out at 48 h, mean ± SD
[10] = 21a vs triazine 4, 33b vs triazine 6

Row | SMILES | CC50 at 48 h [1] | CC50 at 48 h [2] | TSI H9 (H9 cells; pyrimidines and pyridines) | TSI Caco-2 (Caco-2 cells; pyrimidines and pyridines) | Metabolic Stability [5] | solubility kinetic at 3 h [6] | TSI Huh7 (Huh7 cells; pyrimidines and pyridines) | CC50 at 48 h [3, 9] | CC50 at 48 h [4, 9] | Plasmatic Stability (Plasma stability assay) | MR (membrane retention) [7] | Papp at 5 h, 0.5 mM [7] | also measured
1 | Oc1ccccc1/C=N/Nc1nc(N2CCOCC2)nc(N2CCOCC2)n1 [Compound 1] | > 100 µM | > 400 µM |  |  |  |  |  |  |  |  |  |  | TSI H9 (H9 cells; triazines 1-9): <0.3; TSI Caco-2 (Caco-2 cells; triazines 1-9): <0.1; TSI Huh7 (Huh7 cells; triazines 1-9): <0.3; CC50 at 48 h ([3]; triazines 1-9, read-out 48 h): > 100 µM; IC50 (SARS-CoV-2): 12.1 µM; CC50 at 48 h [4, 8]: 30 ± 6 µM
2 | Oc1ccccc1/C=N/Nc1nc(Nc2ccc(F)cc2)nc(N2CCOCC2)n1 [Compound 4] | 2 ± 1 µM | 3 ± 1 µM |  |  |  |  |  |  |  |  |  |  | TSI H9 (H9 cells; triazines 1-9): 5.5; TSI Caco-2 (Caco-2 cells; triazines 1-9): 3.7; IC50 (DENV): 2000 nM; TSI Huh7 (Huh7 cells; triazines 1-9): 1.2; CC50 at 48 h ([3]; triazines 1-9, read-out 48 h): 9 ± 1 µM; IC50 (WNV): 1100 nM; CC50 at 48 h [4, 8]: 11 ± 3 µM
3 | Oc1ccccc1/C=N/Nc1cc(Nc2ccc(F)cc2)nc(Nc2ccc(F)cc2)n1 [Compound 19a] | 31 ± 8 µM | 2 ± 1 µM | 0.5 | 7.0 | >99.9% | < 0.1 µg/mL | 14.0 | 1 ± 0.3 µM | 14 ± 3 µM | 86.64 ± 0.17% | 20.99% and 20.91 ± 1.75% | 3.59 ± 0.21 ×10⁻⁶ cm/s | 
4 | Cc1cccc(/C=N/Nc2cc(Nc3ccc(F)cc3)nc(Nc3ccc(F)cc3)n2)c1 [Compound 19b] | 48 ± 3.5 µM | 4 ± 1 µM | 1.3 | 15.3 | 98.31 ± 0.11% | < 0.1 µg/mL | 10.2 | 6 ± 1 µM | 61 ± 9 µM | >99.9% | 27.42% and 27.42 ± 1.22% | 5.64 ± 0.59 ×10⁻⁶ cm/s | 
5 | Oc1ccccc1/C=N/Nc1cc(Nc2ccc(F)cc2)nc(N2CCOCC2)n1 [Compound 21a] | 11 ± 2 µM | 2 ± 0.4 µM | no selectivity | 5.0 | >99.9% | < 0.1 µg/mL | 3.3 | 3 ± 1 µM | 10 ± 5 µM | 96.93 ± 2.73% | 26.03 ± 6.17% | 4.8 ± 0.73 ×10⁻⁶ cm/s | fold higher TSI than reference triazine, Caco-2 (Caco-2 cells; [10]): 1.4 fold; fold higher TSI than reference triazine, Huh7 (Huh7 cells; [10]): 2.8 fold
6 | Cc1cccc(/C=N/Nc2cc(Nc3ccc(F)cc3)nc(Nc3ccc(F)cc3)c2)c1 [Compound 33b] | 23 ± 7 µM | 11 ± 9 µM | 17.0 | 35.5 | >99.9% | < 0.1 µg/mL | 18.6 | 21 ± 12 µM | 390 ± 30 µM | 81.01 ± 3.28% | 46.84% and 46.84 ± 4.99% | 1.38 ± 0.6 ×10⁻⁶ cm/s | CC50 FB789 (FB789 cells): very low cytotoxic effect
7 | Cc1cccc(/C=N/Nc2cc(Nc3ccc(F)cc3)nc(N3CCOCC3)c2)c1 [Compound 38b] | 18 ± 4 µM | 8 ± 3 µM | 5.0 | 11.3 | 97.93 ± 0.46% | 0.54 µg/mL (≈ 1.33 µM) | 10.0 | 9 ± 6 µM | 90 ± 9 µM | 87.13 ± 0.48% |  | 6.35 ± 0.67 ×10⁻⁶ cm/s | solubility at 3 h ([6]; log of kinetic water solubility, read-out: LogS (converted)): 1.35 µM (≈ 0.547 µg/mL); CC50 FB789 (FB789 cells): very low cytotoxic effect

From PMC11013010, “Serendipitous Identification of Azine Anticancer Agents Using a Privileged Scaffold Morphing Strategy” (Molecules, 2024)
